Data as given in article PMC9814779, “A triple farnesoid X receptor and peroxisome proliferator-activated receptor α/δ activator reverses hepatic fibrosis in diet-induced NASH in mice” (Communications Chemistry, 2020).

Legend:
[1] = molecular target: T1, human PPARγ ligand-binding domain (Gal4 chimera) (Homo sapiens, UniProt P37231); experiment: Gal4 hybrid reporter gene assay, PPARγ; assay type: cell-based; design: Emax: dose or concentration left out as unconfirmed
T1 construct: coding for the hinge region and LBD of the canonical isoform of the respective nuclear receptor; expressed in transfected cells; host or cells: HEK293T
T1 sequence (P37231 238-503 limits assumed): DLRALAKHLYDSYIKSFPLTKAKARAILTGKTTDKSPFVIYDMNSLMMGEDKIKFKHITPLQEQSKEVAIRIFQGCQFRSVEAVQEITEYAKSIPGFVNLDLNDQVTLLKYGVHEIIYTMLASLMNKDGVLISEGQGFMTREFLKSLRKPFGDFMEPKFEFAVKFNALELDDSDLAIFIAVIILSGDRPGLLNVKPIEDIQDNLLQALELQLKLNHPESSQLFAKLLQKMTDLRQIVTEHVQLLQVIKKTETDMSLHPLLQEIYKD

[2] = molecular target: T2, human PPARδ ligand-binding domain (Gal4 chimera) (Homo sapiens, UniProt Q03181); experiment: Gal4 hybrid reporter gene assay, PPARδ; assay type: cell-based; design: Emax: dose or concentration left out as unconfirmed
T2 construct: coding for the hinge region and LBD of the canonical isoform of the respective nuclear receptor; expressed in transfected cells; host or cells: HEK293T
T2 sequence (Q03181 211-439 limits assumed): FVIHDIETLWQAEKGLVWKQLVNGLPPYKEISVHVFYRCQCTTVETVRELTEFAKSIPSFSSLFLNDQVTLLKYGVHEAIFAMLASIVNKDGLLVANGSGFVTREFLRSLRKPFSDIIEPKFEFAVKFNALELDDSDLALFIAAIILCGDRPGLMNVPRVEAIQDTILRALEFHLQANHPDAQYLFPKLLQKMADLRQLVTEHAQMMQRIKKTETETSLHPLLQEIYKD

[3] = system: PPARδ-regulated genes in C2C12 cells; experiment: PPARδ-regulated gene expression in differentiated C2C12 cells (qRT-PCR); assay type: cell-based, murine; details: C2C12 myotubes, 1 μM, 8 h
Procedure: HepG2 cells (DSMZ) were grown in DMEM high glucose, supplemented with 10% FCS, 1 mM SP, penicillin (100 U/mL), and streptomycin (100 μg/mL) at 37 °C and 5% CO2 and seeded in 6-well plates (2 × 10^6 per well). After 24 h, medium was changed to Minimal Essential Medium supplemented with 1% charcoal-stripped FCS, penicillin (100 U/mL), streptomycin (100 μg/mL), and 2 mM L-glutamine. After an additional 24 h, cells were incubated with test compound 41 (0.1 µM, 0.3 µM, 1 μM), OCA (1 μM), or elafibranor (1 µM) dissolved in the same medium with 0.1% DMSO or medium with 0.1% DMSO alone as untreated control for 12 h, harvested, washed with cold phosphate-buffered saline (PBS), and then directly used for RNA extraction. C2C12 cells (American Type Culture Collection, ATCC) were grown in DMEM high glucose, supplemented with 10% FCS, 1 mM SP, penicillin (100 U/mL), and streptomycin (100 μg/mL) at 37 °C and 5% CO2 and seeded in 6-well plates (1 × 10^6 per well). […] FXR- and PPAR-regulated gene expression was then studied by quantitative real-time PCR (qRT-PCR) analysis with a StepOnePlus System (Life Technologies, Carlsbad, CA, USA) using PowerSYBRGreen (Life Technologies; 12.5 μL per well). […] Data were analyzed by the comparative ΔΔCT method with glyceraldehyde 3-phosphate dehydrogenase (GAPDH) as reference gene. […]

CC(C)(C)c1ccc(C(=O)Nc2cccc(CCC(=O)O)c2)c(NC(=O)c2ccc(-c3ccco3)cc2)c1 [compound 41, 3-(3-[4-{tert-Butyl}-2-{4-(2-furyl)}benzamido]phenyl)propanoic acid] was tested, and the EC50 [1] was 2400 ± 100 nM, the Emax ([1]; read-out: max. rel. act. PPARγ) was 16% and the EC50 ([2]; EC50 [μM] PPARδ, HEK293T, mean ± SEM, n = 3) was 0.14 ± 0.01 µM. The EC50 ([2]; PPARδ EC50, as stated in text) was 0.141 µM, the Emax ([2]; read-out: max. rel. act. PPARδ) was 34% and the “upregulation of PCK and GLUT3 mRNA” value [3] was “comparable efficacy as the selective PPARδ agonist L165,041”. For the same molecule, the “effect on LPL expression” value ([3]; compared with L165,041) was “less pronounced”.
